According to publication PMC6069857, “Effects of novel HDAC inhibitors on urothelial carcinoma cells” (Clinical Epigenetics, 2018):

Legend:
Assay type in all cases: cell-based, human
[1] = test system: VM-CUB1; assay: MTT viability assay (CC50)
Description: (§1) Further experiments were performed in VM-CUB1 and UM-UC-3 cells overexpressing HDAC4 (see below). Standard UCCs were obtained from the DSMZ (Braunschweig, Germany) and Dr. H.B. Grossmann HB (Houston, USA). For comparison, we investigated the spontaneously immortalized normal human bladder cell line HBLAK (provided by CELLnTEC, Bern, Switzerland) and the immortalized human embryonic kidney cell line HEK-293 (provided by Dr. V. Kolb-Bachofen, Duesseldorf, Germany). Cells were cultured and treated in DMEM GlutaMAX-I (Gibco, Darmstadt, Germany; UCCs and HEK-293) supplemented with 10% fetal calf serum (Biochrom, Berlin, Germany), except for HBLAK cultured in CnT-Prime Epithelial Culture Medium (CELLnTEC, Bern, Switzerland; HBLAK), at 37 °C and 5% CO2. STR (short tandem repeat) profiling via DNA fingerprint analysis was performed for all cell lines. Primary cultures of normal urothelial cells (UP) were established from healthy ureters removed during tumor nephrectomy and cultured as described. These cultures were used with informed consent of the patients and approval by the Ethics Committee of the Medical Faculty of the Heinrich-Heine-University, study number 1788. All inhibitors were dissolved in DMSO and stored as 10 mM stocks. […] The pan-HDACi inhibitor SAHA previously studied in detail was used for comparison. Solvent control cells were treated with equal amounts of DMSO.
(§2) For the determination of cellular mean cytotoxic concentration (CC50), UCCs, non-malignant control cells, and HDAC4-overexpressing clones were seeded in a 96-well format and treated once with a range of defined concentrations of the HDAC inhibitors. After 72 h, viability was quantified by NAD(P)H-dependent 3-(4,5-dimethylthiazol-2-yl)-2,5-diphenyltetrazolium bromide dye reduction assay (MTT, Sigma Aldrich, St. Louis, MO). CC50 values were estimated from three independent experiments by non-linear regression analysis (four-parameter logistic equation) using Prism 4.0 (Graph Pad) or Origin 8.0 (Origin Lab, Northhampton, GB). For time-dependent proliferation experiments, viability of untreated or inhibitor-treated cells was measured after 24, 48, and 72 h.

[2] = test system: 639-V; assay: MTT viability assay (CC50)
Description: as §1, §2

[3] = test system: HBLAK; assay: MTT viability assay (CC50); details: 72 h of incubation
Description: as §1, §2

[4] = test system: UM-UC-3; assay: MTT viability assay (CC50); details: UM-UC-3, MTT
Description: as §1, §2

[5] = test system: VM-CUB1; assay: High-content analysis-based fluorescent live/dead assay; details: VMCub1, HCA, 72 h
Description: (§3) Live and dead cells were assayed by high-content analysis (HCA). […] After 72 h of treatment, cells were stained with a mixture of Hoechst 33342 (Sigma Aldrich, St. Louis, MO), calcein AM (Merck Millipore, Germany), and propidium iodide (Santa Cruz Biotechnology, Heidelberg) for cell nuclei, live and dead cells. The staining solution was replaced by PBS after 20 min. Images were acquired using ArrayScan XTI Live High Content Platform (Thermo Fisher Scientific Inc., USA) using excitation filters of 386, 485, and 560 nm for Hoechst 33342, calcein AM, and propidium iodide, respectively. The results were analyzed using HCS Studio Cellomics Scan (Thermo Fisher Scientific Inc., USA).

[6] = test system: 639-V; assay: as above; details: HCA, 72 h
Description: as §3

[7] = test system: HBLAK; assay: as above; details: HCA, 72 h
Description: as §3

[8] = test system: UM-UC-3; assay: as above; details: UM-UC-3, HCA, 72 h
Description: as §3

[9] = test system: UC cell lines (VM-CUB1, UM-UC-3, 639-V); assay: MTT viability assay, UC cell lines taken together; details: MTT and HCA live/dead assays
Description: Further experiments were performed in VM-CUB1 and UM-UC-3 cells overexpressing HDAC4 (see below). Standard UCCs were obtained from the DSMZ (Braunschweig, Germany) and Dr. H.B. Grossmann HB (Houston, USA). For comparison, we investigated the spontaneously immortalized normal human bladder cell line HBLAK (provided by CELLnTEC, Bern, Switzerland) and the immortalized human embryonic kidney cell line HEK-293 (provided by Dr. V. Kolb-Bachofen, Duesseldorf, Germany). Cells were cultured and treated in DMEM GlutaMAX-I (Gibco, Darmstadt, Germany; UCCs and HEK-293) supplemented with 10% fetal calf serum (Biochrom, Berlin, Germany), except for HBLAK cultured in CnT-Prime Epithelial Culture Medium (CELLnTEC, Bern, Switzerland; HBLAK), at 37 °C and 5% CO2. […]
as §2, with “CC50 values were estimated from three independent experiments by non-linear regression analysis (four-parameter logistic equation) using Prism 4.0 (Graph Pad) or Origin 8.0 (Origin Lab, Northhampton, GB).” left out

[10] = test system: UCCs; assay: Western blot of acetylated α-tubulin and histones H3/H4; details: 48 h; 19i 1 or 2 μM, SAHA 2.5 μM
Description: Total protein extraction, purification of histones, and Western blot analysis were performed as previously described. Briefly, cells were incubated for 30 min on ice in RIPA-buffer (150 mM NaCl, 1% Triton X-100, 0.5% desoxycholate, 1% Nonidet P-40, 0.1% SDS, 1 mM EDTA, 50 mM TRIS (pH 7.6)) containing 10 μl/ml protease inhibitor cocktail (#P-8340, Sigma Aldrich, St. Louis, MO). Histones were extracted for detection of histone H3 and H4 acetylation by a modified published protocol employing sulfuric acid extraction and TCA-precipitation. Concentrations of total protein and histones were determined by BCA protein assay (Thermo Fisher Scientific, Carlsbad, CA). Subsequently, total cell proteins (15 μg) or extracted histones (2 μg) were separated by SDS-PAGE (total proteins 10–12% gels, histones 15% gels), transferred to PVDF membranes (Merck Millipore, Berlin, Germany), and were incubated with primary antibodies (at RT for 1 h or 4 °C overnight, see Additional file 3: Table S2) following blocking with 5% non-fat milk or BSA (bovine serum albumin) in TBST (150 mM NaCl, 10 mM TRIS, pH 7.4 and 0.1% Tween-20). For signal detection, membranes were incubated with a suitable horseradish peroxidase-conjugated secondary antibody (see Additional file 2: Table S1) at RT for 1 h and signals were visualized by SuperSignal™ West Femto (Thermo Fisher Scientific, Carlsbad, CA) and WesternBright Quantum kit (Biozym, Hessisch Oldendorf, Germany).

Compound | CC50 ([1]; VM-CUB1, MTT, 72 h of incubation) [µM] | CC50 ([1]; VMCub1, MTT, 24 h) [µM] | CC50 ([1]; VMCub1, MTT, 48 h) [µM] | CC50 ([2]; 24 h) [µM] | CC50 ([2]; 48 h) [µM] | CC50 ([2]; 72 h of incubation) [µM] | CC50 [3] [µM] | CC50 ([4]; 24 h) [µM] | CC50 ([4]; 48 h) [µM] | CC50 ([4]; 72 h of incubation) [µM] | CC50 [5] [µM] | CC50 [6] [µM] | CC50 [7] [µM] | CC50 [8] [µM] | concentrations effective on / impeding proliferation of UC cell lines [9] [µM] | acetylation of α-tubulin [10]
O=C(NCC1(c2nc(-c3ccccc3)cs2)CCOCC1)c1cccc(-c2noc(C(F)(F)F)n2)c1 [TMP269] | 45.9 | 115 | 115 | 96.1 | 65.8 | 39.4 | 48.7 | 110 | 73.8 | 32.3 | 20.1 | 16.5 | 10.6 | 14.6 | > 10 | –
O=C(CCCCCCC(=O)Nc1ccccc1)NO [SAHA, suberoylanilide hydroxamic acid, reference compound] | – | – | – | – | – | – | – | – | – | – | – | – | – | – | – | strongly induced
